Measured values from US6916927B2, “Pyrazolopyrimidinones which inhibit type 5 cyclic guanosine 3′,5′-monophosphate phosphodiesterase (cGMP-PDE5) for the treatment of sexual dysfunction” (Pfizer Inc., priority 1997, dated 2005).
pIC50: −log10 of the molar value.

Molecular target: cGMP-specific PDE (PDE5) (UniProt O76074)
Test: In vitro PDE inhibitory activity (IC50) against cGMP PDE5
Format: biochemical, human or rabbit
Conditions: in vitro activities as inhibitors of cGMP PDE5
Method: In vitro PDE inhibitory activities against cyclic guanosine 3′,5′-monophosphate (cGMP) and cyclic adenosine 3′,5′-monophosphate (cAMP) phosphodiesterases were determined by measurement of their IC50 values (the concentration of compound required for 50% inhibition of enzyme activity).
The required PDE enzymes were isolated from a variety of sources, including human corpus cavernosum, human and rabbit platelets, human cardiac ventricle, human skeletal muscle and bovine retina, essentially by the method of W. J. Thompson and M. M. Appleman (Biochem., 1971, 10, 311). In particular, the cGMP-specific PDE (PDE5) and the cGMP-inhibited cAMP PDE (PDE3) were obtained from human corpus cavernosum tissue, human platelets or rabbit platelets; the cGMP-stimulated PDE (PDE2) was obtained from human corpus cavernosum; the calcium/calmodulin (Ca/CAM)-dependent PDE (PDE1) from human cardiac ventricle; the cAMP-specific PDE (PDE^4) from human skeletal muscle; and the photoreceptor PDE (PDE6) from bovine retina.
Assays were performed using a modification of the “batch” method of W. J. Thompson et al. (Biochem., 1979, 18, 5228).

Question: With `CCCc1nn(Cc2ccccc2)c2c(=O)[nH]c(-c3cc(S(=O)(=O)N4CCN(C)CC4)ccc3OCC)nc12` [Example 41, 1-Benzyl-5-[2-ethoxy-5-(4-methylpiperazin-1-ylsulphonyl)phenyl]-3-n-propyl-1,6-dihydro-7H-pyrazolo[4,3-d]pyrimidin-7-one] as the compound, how does the pIC50 read?
Answer: 8.41

Question: `CCCOc1ccc(S(=O)(=O)N2CCN(CC)CC2)cc1-c1nc2c(CCC)n(-c3ccccc3NS(C)(=O)=O)nc2c(=O)[nH]1` [Example 117, 5-[5-(4-Ethylpiperazin-1-ylsulphonyl)-2-n-propoxyphenyl]-2-(2-methanesulphonamidophenyl)-3-n-propyl-2,6-dihydro-7H-pyrazolo[4,3-d]-pyrimidin-7-one] was tested. Which pIC50 did it give?
Answer: 8.49

Question: With `CCCOc1ccc(S(=O)(=O)N2CCN(CC)CC2)cc1-c1nc2c(CCC)n(Cc3cccc[n+]3[O-])nc2c(=O)[nH]1` [Example 129, 5-[5-(4-Ethylpiperazin-1-ylsulphonyl)-2-n-propoxyphenyl]-2-(1-oxidopyridin-2-yl)methyl-3-n-propyl-2,6-dihydyro-7H-pyrazolo[4,3-d]pyrimidin-7-one] as the compound, how does the pIC50 read?
Answer: 8.19

Question: With `CCCc1c2nc(-c3cc(S(=O)(=O)N4CCN(C)CC4)ccc3OCC)[nH]c(=O)c2nn1CC1CCC1` [Example 126, 2-Cyclobutylmethyl-5-[2-ethoxy-5-(4-methylpiperazin-1-ylsulphonyl)phenyl]-3-n-propyl-2,6-dihydro-7H-pyrazolo[4,3-d]pyrimidin-7-one] as the compound, how does the pIC50 read?
Answer: 8.04

Question: How did the pIC50 turn out when `CCCc1c2nc(-c3cc(S(=O)(=O)N4CCN(C)CC4)ccc3OCC)[nH]c(=O)c2nn1Cc1ccccc1` [Example 87, 2-Benzyl-5-[2-ethoxy-5-(4-methylpiperazin-1-ylsulphonyl)phenyl]-3-n-propyl-2,6-dihydro-7H-pyrazolo[4,3-d]pyrimidin-7-one] was run?
Answer: 7.92

Question: `CCCOc1ccc(S(=O)(=O)N2CCN(C)CC2)cc1-c1nc2c(CCC)n(Cc3ncnn3C)nc2c(=O)[nH]1` [Example 77, 5-[5-(4-Methylpiperazin-1-ylsulphonyl)-2-n-propoxyphenyl]-2-(1-methyl-1,2,4-triazol-5-yl)methyl-3-n-propyl-2,6-dihydro-7H-pyrazolo[4,3-d]pyrimidin-7-one] was tested. Which pIC50 did it give?
Answer: 8.15

Question: `CCCOc1ccc(S(=O)(=O)N2CCN(CCO)CC2)cc1-c1nc2c(CCC)n(Cc3ccccn3)nc2c(=O)[nH]1` [Example 7, 5-{5-[4-(2-Hydroxyethyl)piperazin-1-ylsulphonyl]-2-n-propoxyphenyl}-3-n-propyl-2-(pyridin-2-yl)methyl-2,6-dihydro-7H-pyrazolo[4,3-d]pyrimidin-7-one] was tested. Which pIC50 did it give?
Answer: 8.59

Question: `CCCOc1ccc(S(=O)(=O)N2CCN(C)CC2)cc1-c1nc2c(CCC)n(-c3ncccn3)nc2c(=O)[nH]1` [Example 125, 5-[5-(4-Methylpipierazin-1-ylsulphonyl)-2-n-propoxyphenyl]-3-n-propyl-2-pyrimidin-2-yl-2,6-dihydro-7H-pyrazolo[4,3-d]pyrimidin-7-one] was tested. Which pIC50 did it give?
Answer: 8.55

Question: How did the pIC50 turn out when `CCCOc1ccc(S(=O)(=O)N2CCN(CCO)CC2)cc1-c1nc2c(CCC)nn(Cc3ccccn3)c2c(=O)[nH]1` [Example 4, 5-{5-[4-(2-Hydroxyethyl)piperazin-1-ylsulphonyl]-2-n-propoxyphenyl}-3-n-propyl-1-(pyridin-2-yl)methyl-1,6-dihydro-7H-pyrazolo[4,3-d]pyrimidin-7-one] was run?
Answer: 8.66

Question: `CCCOc1ccc(S(=O)(=O)N2CCN(C)CC2)cc1-c1nc2c(CCC)nn(Cc3ncnn3C)c2c(=O)[nH]1` [Example 31, 5-[5-(4-Methylpiperazin-1-ylsulphonyl)-2-n-propoxyphenyl]-1(1-methyl-1,2,4-triazol-5-yl)methyl-3-n-propyl-1,6-dihydro-7H-pyrazolo-[4,3-d]pyrimidin-7-one] was tested. Which pIC50 did it give?
Answer: 8.40

Question: How did the pIC50 turn out when `CCCOc1ccc(S(=O)(=O)N2CCN(CC)CC2)cc1-c1nc2c(CCC)n(CCN3CCOCC3)nc2c(=O)[nH]1` [Example 108, 5-[5-(4-Ethylpiperazin-1-ylsulphonyl)-2-n-propoxyphenyl]-2-(2-morphin-4-ylethyl)-3-n-propyl-2,6-dihydro-7H-pyrazolo[4,3-d]pyrimidin-7-one] was run?
Answer: 8.68

Question: How did the pIC50 turn out when `CCCOc1ccc(S(=O)(=O)N2CCN(CC)CC2)cc1-c1nc2c(CCC)nn(CCN3CCOCC3)c2c(=O)[nH]1` [Example 100, 5-[5-(4-Ethylpiperazin-1-ylsulphonyl)-2-n-propoxyphenyl]-1-(2-morpholin-4-ylethyl)-3-n-propyl-1,6-dihydro-7H-pyrazolo[4,3-d]pyrimidin-7-one] was run?
Answer: 8.72
